Source: PMC6934184, “Selective DNA-PKcs inhibition extends the therapeutic index of localized radiotherapy and chemotherapy” (The Journal of Clinical Investigation, 2019)

System: remaining 398 kinases
Experiment: SelectScreen Broad Assay Panel, summary
Type: biochemical
Settings: 1 µM
Experimental: The in vitro kinase selectivity of NU5455 was determined using the SelectScreen Broad Assay Panel (Thermo Fisher Scientific) involving activity and binding assays (Supplemental Table 1). […] Class IA PI3Ks were measured using the p85α subunit.
Kinase [ATP] % Assay Kinase [ATP] % Assay Kinase [ATP] % Assay Kinase [ATP] % Assay
DNA-PK Km app 98.3 Z LATS2 n/a 4.7 L KIT D820E n/a 1.3 L GSK3B (GSK3 beta) Km app -2.5 Z
PIK3C3 (hVPS34) Km app 85.9 A PRKCZ (PKC zeta) Km app 4.7 Z GRK1 n/a 1.3 L BMPR2 n/a -2.5 L
PIK3C2B (PI3K-C2 beta) 10 28.9 A FGFR1 Km app 4.7 Z BRSK2 n/a 1.2 L CDC42 BPB (MRCKB) Km app -2.5 Z
SNF1LK2 Km app 26.6 Z MINK1 Km app 4.6 Z NUAK1 (ARK5) Km app 1.2 A AMPK (A2/B2/G2) n/a -2.6 L
HCK Km app 18.0 Z CSF1R (FMS) Km app 4.3 Z CDK9/cyclin K n/a 1.0 L PRKG1 Km app -2.7 Z
NEK2 Km app 17.8 Z CSNK1G3 (CK1 gamma 3) Km app 4.2 Z NUAK2 n/a 1.0 L KIT T670E n/a -2.8 L
ALK Km app 17.3 Z STK32C (YANK3) n/a 4.2 L CDK2/cyclin O n/a 0.9 L ERBB4 (HER4) Km app -2.8 Z
FGFR3 K650M n/a 16.5 L STK22D (TSSK1) Km app 4.2 Z CAMKK2 (CaMKK beta) n/a 0.9 L PLK4 n/a -2.8 L
SIK3 n/a 16.1 L TAOK3 (JIK) n/a 4.2 L FGFR3 Km app 0.9 Z GRK7 Km app -3.0 Z
LYN A Km app 15.2 Z RPS6KA4 (MSK2) Km app 4.2 Z ULK2 n/a 0.9 L MAPKAPK2 Km app -3.1 Z
BMPR1B (ALK6) n/a 14.5 L PTK2B (FAK2) Km app 4.2 Z KIT D816V n/a 0.9 L FGFR4 Km app -3.1 Z
INSRR (IRR) Km app 14.1 Z CLK2 Km app 4.1 Z CAMK1 (CaMK1) 10 0.8 A CASK n/a -3.1 L […]

CN(C(=O)CN1CCOCC1)c1ccc2sc3c(-c4cccc5c(=O)cc(N6CC7CCC(C6)O7)oc45)cccc3c2c1 [NU5455]
inhibition in the majority of the remaining 398 kinases: less than 10%
